In patent publication US20090281083A1, “Combination Product” (ASTRAZENECA AB, priority 2005, published 2009):

Experiments:
5/6 nephrectomy rats [1] = assay: Histological mesangial expansion score of kidneys of 5/6 nephrectomised rats; format: in vivo, male Wistar rats; conditions: 4 months into the study (3 months of drug treatment); candesartan cilexetil 5 mg/kg/day p.o., BH4 10 mg/kg/day i.p.; untreated Nx 200, sham 0
Procedure: Sixty male Wistar rats, mean weight 324±4 g, were fed a normal chow diet and allowed distilled water ad libitum. The 5/6 nephrectomy was performed according to standard protocol. In brief, the animals were anaesthetized with pentobarbital [35 mg/kg body weight (BW) intraperitoneally] and then underwent a right nephrectomy and ligature of two of the major branches of the left main renal artery (Nx) at day 0. AII the nephrectomies were carried out by one operator. The animals were then randomly assigned to one of five groups, as follows. • Group 1. SHAM (n=12); sham-operated rats. • Group 2. Nx (n=15); untreated 5/6 nephrectomy rats. • Group 3. […]
Drug administration was begun 30 days after surgery (at a point when the nephrectomised rats have already developed hypertension and renal insufficiency). […] Systolic blood pressure (SBP) was measured in trained unstressed rats 1 day before surgery and at 30, 60, 90 and 120 days, by tail cuff manometry using an automated sphygmomanometer (Narco Bio Systems, Austin, Tex., USA). […]
Kidneys were fixed in neutral buffered formalin and embedded in paraffin for light microscopic study. […] A semi-quantitative score was used to assess the severity of glomerular lesions (see Nephrol. Dial. Transplant. 8, 501-506 (1993), the disclosures of which document are hereby incorporated by reference). […]

5/6 nephrectomy rats [2] = assay: Survival of 5/6 nephrectomised rats at 4 months; format: in vivo, male Wistar rats; conditions: 4 months into the study (3 months of drug treatment); candesartan cilexetil 5 mg/kg/day p.o., BH4 10 mg/kg/day i.p.
Procedure: Sixty male Wistar rats, mean weight 324±4 g, were fed a normal chow diet and allowed distilled water ad libitum. The 5/6 nephrectomy was performed according to standard protocol. In brief, the animals were anaesthetized with pentobarbital [35 mg/kg body weight (BW) intraperitoneally] and then underwent a right nephrectomy and ligature of two of the major branches of the left main renal artery (Nx) at day 0. AII the nephrectomies were carried out by one operator. The animals were then randomly assigned to one of five groups, as follows. • Group 1. SHAM (n=12); sham-operated rats. • Group 2. Nx (n=15); untreated 5/6 nephrectomy rats. • Group 3. C (n=11); 5/6 nephrectomy rats to which candesartan cilexetil (AstraZeneca AB) was given daily at a dose of 5 mg/kg BW/day. • Group 4. BH4 (n=10); 5/6 nephrectomy rats administered BH4 (Alexis Biochemical, Lausen), 10 mg/kg BW/day intraperitoneally (see Hypertension 38, 1044-1048 (2001), the disclosures of which document are hereby incorporated by reference). • Group 5. C+B (n=12); 5/6 nephrectomy rats to which candesartan cilexetil (AstraZeneca AB) was given daily at a dose of 5 mg/kg BW/day and BH4 (Alexis Biochemical, Lausen), was administered at a dose of 10 mg/kg BW/day intraperitoneally.
Drug administration was begun 30 days after surgery (at a point when the nephrectomised rats have already developed hypertension and renal insufficiency). […] Systolic blood pressure (SBP) was measured in trained unstressed rats 1 day before surgery and at 30, 60, 90 and 120 days, by tail cuff manometry using an automated sphygmomanometer (Narco Bio Systems, Austin, Tex., USA). The Animal Care and Use Committee of Meir Hospital approved all procedures.
Due to abnormalities found by way of post-study autopsies, two rats were excluded from the analysis of the “C+B” group (i.e. Group 5).
At a point 4 months into the study (3 months of drug treatment for rats in groups 3 to 5), survival rates were as follows.

Row | SMILES | ME Score (mesangial expansion score, median value) (5/6 nephrectomy rats [1]) | Survival (% age) (5/6 nephrectomy rats [2]) | Survival (surviving rats of group) (5/6 nephrectomy rats [2])
1 | C[C@H](O)[C@H](O)[C@H]1CNc2nc(N)[nH]c(=O)c2N1 [BH4, Tetrahydrobiopterin] | 158 | (50%) | 
2 | CCOc1nc2cccc(C(=O)OC(C)OC(=O)OC3CCCCC3)c2n1Cc1ccc(-c2ccccc2-c2nnn[nH]2)cc1 (centres unmarked) [candesartan cilexetil, 1-(cyclohexyloxycarbonyloxy)ethyl ester of candesartan] | 82 | (63.64%) | 7 of 11
